Test results published in patent US8129371B2, “Thienopyrimidine and pyrazolopyrimidine compounds and their use as mTOR kinase and PI3 kinase inhibitors” (Wyeth LLC, priority 2007, dated 2012).

Assays:
[1] = test system: breast line MDA468; test: In vitro cell culture growth assay (MTS), MDA468; assay type: cell-based; details: Homo sapiens, 72 h, MDA468 cells, three days after drug treatment
How it was run: (§1)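 The readout was MTS dye metabolism at 490 nm, taken after 3-day drug exposure that began the day after seeding. Growth was expressed as percent of vehicle-treated wells in the same plate.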

[2] = target: T1, PI3K (Homo sapiens, UniProt P42336); test: Fluorescence polarization assay for PI3K; assay type: biochemical; details: PI3 Kinase α isoform, fluorescence polarization; read-out: PI3 Kinase α IC50
T1 construct: PI3 Kinase α IC50; other: PI3 Kinase α; other: PI3 Kinase α isoform, fluorescence polarization
How it was run: (§2)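 PI3K was preincubated with compound (final DMSO 1%), and the reaction was started with PIP2/ATP substrate and run 30–60 min. It was stopped with a detector mix giving 10 nM red probe and 70 nM GST-GRP.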

[3] = target: T2, PI3K (Homo sapiens, UniProt P48736); test: Fluorescence polarization assay for PI3K; assay type: biochemical; details: PI3 Kinase γ isoform, fluorescence polarization; read-out: PI3 Kinase γ IC50
T2 construct: PI3 Kinase γ IC50; other: PI3 Kinase γ; other: PI3 Kinase γ isoform, fluorescence polarization
How it was run: as §2

[4] = test system: prostate line LNCap; test: In vitro cell culture growth assay (MTS), LNCap; assay type: cell-based; details: Homo sapiens, LNCaP, 72 h, LNCap cells, three days after drug treatment
How it was run: as §1

[5] = target: T3, Human mTOR (FLAG-TOR) (Homo sapiens, UniProt P42345); test: Human mTOR kinase assay with purified enzyme, DELFIA format; assay type: biochemical; details: purified human mTOR enzyme, DELFIA format
T3 construct: FLAG
How it was run: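 Purified FLAG-mTOR in HEPES pH 7.4 buffer with 10 mM MnCl2 was preincubated with inhibitor and reacted 2 h at room temperature with His6-S6K substrate, then stopped with EDTA/EGTA. Phospho-T389 S6K detected by DELFIA with Eu-labelled antibody (40 ng/mL) after plate capture; inhibition computed from signal.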

T1 sequence (P42336 whole entry, canonical isoform): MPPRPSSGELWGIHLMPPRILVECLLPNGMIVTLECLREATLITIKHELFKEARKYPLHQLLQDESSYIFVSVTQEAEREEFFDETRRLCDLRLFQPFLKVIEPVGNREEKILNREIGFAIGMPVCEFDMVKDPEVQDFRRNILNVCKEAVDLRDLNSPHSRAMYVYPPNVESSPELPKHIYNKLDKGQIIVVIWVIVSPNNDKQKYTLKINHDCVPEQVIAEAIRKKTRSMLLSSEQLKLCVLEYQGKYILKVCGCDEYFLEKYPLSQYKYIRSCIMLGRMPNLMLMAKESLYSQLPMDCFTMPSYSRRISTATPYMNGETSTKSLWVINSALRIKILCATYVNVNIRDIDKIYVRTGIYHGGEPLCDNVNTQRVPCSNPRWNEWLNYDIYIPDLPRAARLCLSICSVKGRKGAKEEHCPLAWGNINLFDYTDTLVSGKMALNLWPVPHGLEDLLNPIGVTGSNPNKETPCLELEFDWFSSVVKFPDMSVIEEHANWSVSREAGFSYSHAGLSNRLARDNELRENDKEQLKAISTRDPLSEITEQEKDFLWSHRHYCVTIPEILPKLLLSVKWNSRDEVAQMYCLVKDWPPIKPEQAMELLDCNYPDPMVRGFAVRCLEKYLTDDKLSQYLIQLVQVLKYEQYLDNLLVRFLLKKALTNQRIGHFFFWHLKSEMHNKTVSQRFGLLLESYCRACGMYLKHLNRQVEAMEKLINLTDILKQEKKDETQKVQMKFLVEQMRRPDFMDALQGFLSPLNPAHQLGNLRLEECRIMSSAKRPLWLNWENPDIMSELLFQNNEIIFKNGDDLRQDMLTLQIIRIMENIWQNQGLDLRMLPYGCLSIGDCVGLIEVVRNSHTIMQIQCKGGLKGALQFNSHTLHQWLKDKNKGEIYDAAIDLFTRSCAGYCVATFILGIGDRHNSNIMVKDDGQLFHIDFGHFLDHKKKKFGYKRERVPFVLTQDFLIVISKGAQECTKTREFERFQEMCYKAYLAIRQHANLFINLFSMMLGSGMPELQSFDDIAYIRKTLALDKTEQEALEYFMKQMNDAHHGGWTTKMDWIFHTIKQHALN
T2 sequence (P48736 whole entry, canonical isoform): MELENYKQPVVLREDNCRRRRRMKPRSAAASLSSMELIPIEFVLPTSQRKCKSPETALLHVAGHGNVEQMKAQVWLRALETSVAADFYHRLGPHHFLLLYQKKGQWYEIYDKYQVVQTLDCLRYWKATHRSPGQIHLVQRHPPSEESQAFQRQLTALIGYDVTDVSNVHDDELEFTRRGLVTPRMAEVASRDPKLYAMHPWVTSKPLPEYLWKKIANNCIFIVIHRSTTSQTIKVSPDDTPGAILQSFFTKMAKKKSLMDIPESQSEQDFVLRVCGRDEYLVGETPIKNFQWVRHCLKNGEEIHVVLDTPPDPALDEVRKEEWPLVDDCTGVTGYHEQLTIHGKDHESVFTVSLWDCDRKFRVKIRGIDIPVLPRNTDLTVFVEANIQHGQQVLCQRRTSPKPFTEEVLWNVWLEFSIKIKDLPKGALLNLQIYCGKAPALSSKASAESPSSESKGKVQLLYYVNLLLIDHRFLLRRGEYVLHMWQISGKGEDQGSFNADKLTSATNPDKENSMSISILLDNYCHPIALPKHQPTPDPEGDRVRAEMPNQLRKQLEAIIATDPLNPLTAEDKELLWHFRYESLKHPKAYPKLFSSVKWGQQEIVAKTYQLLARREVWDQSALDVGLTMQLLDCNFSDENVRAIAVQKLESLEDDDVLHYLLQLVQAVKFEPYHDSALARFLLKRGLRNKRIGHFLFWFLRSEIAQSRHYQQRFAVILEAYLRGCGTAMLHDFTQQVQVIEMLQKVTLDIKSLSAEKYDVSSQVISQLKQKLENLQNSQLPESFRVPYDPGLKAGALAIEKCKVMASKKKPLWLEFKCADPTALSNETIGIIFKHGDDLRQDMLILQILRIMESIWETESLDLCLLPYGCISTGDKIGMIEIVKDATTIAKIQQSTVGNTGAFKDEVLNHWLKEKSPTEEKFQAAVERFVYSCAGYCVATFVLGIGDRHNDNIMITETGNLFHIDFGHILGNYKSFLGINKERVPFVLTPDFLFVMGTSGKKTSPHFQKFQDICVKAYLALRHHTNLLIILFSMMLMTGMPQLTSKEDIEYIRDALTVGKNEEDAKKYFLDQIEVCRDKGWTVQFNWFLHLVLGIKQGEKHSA

Row | IC50 [2] | IC50 [3] | IC50 [4] | IC50 [5] | Structure (SMILES) | IC50 [1]
1 | 2110 nM | > 10000 nM | 1 nM | 0.445 nM | O=C1CCC(n2ncc3c(N4CC5CCC(C4)O5)nc(-c4ccc(NC(=O)NC5CC5)cc4)nc32)CC1 [Example 401, 1-cyclopropyl-3-{4-[4-(8-oxa-3-azabicyclo[3.2.1]oct-3-yl)-1-(4-oxocyclohexyl)-1H-pyrazolo[3,4-d]pyrimidin-6-yl]phenyl}urea] | 10 nM
2 | 423 nM | > 10000 nM | 85 nM | 0.94 nM | CNC(=O)Nc1ccc(-c2nc(N3CC4CCC(C3)O4)c3sccc3n2)cc1 [Example 406, 1-methyl-3-{4-[4-(8-oxa-3-azabicyclo[3.2.1]oct-3-yl)thieno[3,2-d]pyrimidin-2-yl]phenyl}urea] | 400 nM
3 | 825 nM | > 10000 nM | 87 nM | 0.61 nM | O=C(NCCF)Nc1ccc(-c2nc(N3CC4CCC(C3)O4)c3sccc3n2)cc1 [Example 408, 1-(2-fluoroethyl)-3-{4-[4-(8-oxa-3-azabicyclo[3.2.1]oct-3-yl)thieno[3,2-d]pyrimidin-2-yl]phenyl}urea] | 530 nM
4 | 1360 nM | ≥ 10000 nM | 40 nM | 0.71 nM | O=C(Nc1ccc(-c2nc(N3CC4CCC(C3)O4)c3sccc3n2)cc1)NC1CC1 [Example 410, 1-cyclopropyl-3-{4-[4-(8-oxa-3-azabicyclo[3.2.1]oct-3-yl)thieno[3,2-d]pyrimidin-2-yl]phenyl}urea] | 780 nM
5 | 119 nM | 2360 nM | 27 nM | 0.28 nM | O=C(Nc1ccc(-c2nc(N3CC4CCC(C3)O4)c3sccc3n2)cc1)Nc1cccnc1 [Example 412, 1-{4-[4-(8-oxa-3-azabicyclo[3.2.1]oct-3-yl)thieno[3,2-d]pyrimidin-2-yl]phenyl}-3-pyridin-3-ylurea] | 72 nM
6 | 80 nM | 1380 nM | 10 nM | 0.39 nM | O=C(Nc1ccncc1)Nc1ccc(-c2nc(N3CC4CCC(C3)O4)c3sccc3n2)cc1 [Example 413, 1-{4-[4-(8-oxa-3-azabicyclo[3.2.1]oct-3-yl)thieno[3,2-d]pyrimidin-2-yl]phenyl}-3-pyridin-4-ylurea] | 48 nM
7 | 4370 nM | > 10000 nM | 1700 nM | 26 nM | CC(=O)Nc1ccc(-c2nc(N3CC4CCC(C3)O4)c3sccc3n2)cc1 [Example 415, N-{4-[4-(8-oxa-3-azabicyclo[3.2.1]oct-3-yl)thieno[3,2-d]pyrimidin-2-yl]phenyl}acetamide] | 8500 nM
8 | 6200 nM | > 10000 nM | 1850 nM | 8.6 nM | COC(=O)Nc1ccc(-c2nc(N3CC4CCC(C3)O4)c3sccc3n2)cc1 [Example 416, methyl {4-[4-(8-oxa-3-azabicyclo[3.2.1]oct-3-yl)thieno[3,2-d]pyrimidin-2-yl]phenyl}carbamate] | 9100 nM
9 | 8620 nM | > 10000 nM | 1350 nM | 22 nM | c1cc2cc(-c3nc(N4CC5CCC(C4)O5)c4sccc4n3)ccc2[nH]1 [Example 419, 2-(1H-indol-5-yl)-4-(8-oxa-3-azabicyclo[3.2.1]oct-3-yl)thieno[3,2-d]pyrimidine] | 7900 nM
10 | 1770 nM | > 10000 nM | 1250 nM | 32 nM | Nc1ccc(-c2nc(N3CC4CCC(C3)O4)c3sccc3n2)cn1 [Example 420, 5-[4-(8-oxa-3-azabicyclo[3.2.1]oct-3-yl)thieno[3,2-d]pyrimidin-2-yl]pyridin-2-amine] | 4800 nM
11 | 246 nM | 9180 nM | 1200 nM | 51 nM | Nc1ncc(-c2nc(N3CC4CCC(C3)O4)c3sccc3n2)cn1 [Example 421, 5-[4-(8-oxa-3-azabicyclo[3.2.1]oct-3-yl)thieno[3,2-d]pyrimidin-2-yl]pyrimidin-2-amine] | 3900 nM
12 | 4430 nM | > 10000 nM | 7200 nM | 270 nM | Oc1ccc(Nc2nc(N3CC4CCC(C3)O4)c3sccc3n2)cc1 [Example 422, 4-{[4-(8-oxa-3-azabicyclo[3.2.1]oct-3-yl)thieno[3,2-d]pyrimidin-2-yl]amino}phenol] | 31000 nM
13 | 874 nM | 3670 nM | 400 nM | 15.5 nM | CN1CCN(Cc2cc3nc(-c4ccc(NC(=O)NC5CC5)cc4)nc(N4CC5CCC(C4)O5)c3s2)CC1 [Example 424, 1-cyclopropyl-3-(4-{6-[(4-methylpiperazin-1-yl)methyl]-4-(8-oxa-3-azabicyclo[3.2.1]oct-3-yl)thieno[3,2-d]pyrimidin-2-yl}phenyl)urea] | 2000 nM
14 | 5530 nM | > 10000 nM | 19000 nM | 545 nM | CN1CCN(Cc2cc3nc(-c4ccc(NC(=O)NN(C)C)cc4)nc(N4CC5CCC(C4)O5)c3s2)CC1 [Example 425, 2,2-dimethyl-N-(4-{6-[(4-methylpiperazin-1-yl)methyl]-4-(8-oxa-3-azabicyclo[3.2.1]oct-3-yl)thieno[3,2-d]pyrimidin-2-yl}phenyl)hydrazinecarboxamide] | 23000 nM
15 | 148 nM | 2610 nM | 180 nM | 4.7 nM | CN1CCN(Cc2cc3nc(-c4ccc(NC(=O)Nc5cccnc5)cc4)nc(N4CC5CCC(C4)O5)c3s2)CC1 [Example 426, 1-(4-{6-[(4-methylpiperazin-1-yl)methyl]-4-(8-oxa-3-azabicyclo[3.2.1]oct-3-yl)thieno[3,2-d]pyrimidin-2-yl}phenyl)-3-pyridin-3-ylurea] | 380 nM
16 | 86 nM | 1270 nM | 200 nM | 3.7 nM | CN1CCN(Cc2cc3nc(-c4ccc(NC(=O)Nc5ccncc5)cc4)nc(N4CC5CCC(C4)O5)c3s2)CC1 [Example 427, 1-(4-{6-[(4-methylpiperazin-1-yl)methyl]-4-(8-oxa-3-azabicyclo[3.2.1]oct-3-yl)thieno[3,2-d]pyrimidin-2-yl}phenyl)-3-pyridin-4-ylurea] | 390 nM
17 | 34 nM | 815 nM | 240 nM | 1.5 nM | CN1CCN(Cc2cc3nc(-c4ccc(NC(=O)Nc5ccc(C(N)=O)cc5)cc4)nc(N4CC5CCC(C4)O5)c3s2)CC1 [Example 428, 4-{[(4-{6-[(4-methylpiperazin-1-yl)methyl]-4-(8-oxa-3-azabicyclo[3.2.1]oct-3-yl)thieno[3,2-d]pyrimidin-2-yl}phenyl)carbamoyl]amino}benzamide] | 110 nM
18 | 46 nM | 3710 nM | 120 nM | 1.41 nM | CNC(=O)Nc1ccc(-c2nc(N3CC4CCC(C3)O4)c3sc(CN4CCN(S(C)(=O)=O)CC4)cc3n2)cc1 [Example 429, 1-methyl-3-{4-[6-{[4-(methylsulfonyl)piperazin-1-yl]methyl}-4-(8-oxa-3-azabicyclo[3.2.1]oct-3-yl)thieno[3,2-d]pyrimidin-2-yl]phenyl}urea] | 90 nM
19 | 113 nM | 1630 nM | 36 nM | 1.29 nM | CCNC(=O)Nc1ccc(-c2nc(N3CC4CCC(C3)O4)c3sc(CN4CCN(S(C)(=O)=O)CC4)cc3n2)cc1 [Example 430, 1-ethyl-3-{4-[6-{[4-(methylsulfonyl)piperazin-1-yl]methyl}-4-(8-oxa-3-azabicyclo[3.2.1]oct-3-yl)thieno[3,2-d]pyrimidin-2-yl]phenyl}urea] | 90 nM
20 | 179 nM | 1530 nM | 32 nM | 1.01 nM | CS(=O)(=O)N1CCN(Cc2cc3nc(-c4ccc(NC(=O)NC5CC5)cc4)nc(N4CC5CCC(C4)O5)c3s2)CC1 [Example 431, 1-cyclopropyl-3-{4-[6-{[4-(methylsulfonyl)piperazin-1-yl]methyl}-4-(8-oxa-3-azabicyclo[3.2.1]oct-3-yl)thieno[3,2-d]pyrimidin-2-yl]phenyl}urea] | 200 nM
21 | 6 nM | 522 nM | 4 nM | 1.3 nM | CS(=O)(=O)N1CCN(Cc2cc3nc(-c4ccc(NC(=O)Nc5ccccc5)cc4)nc(N4CC5CCC(C4)O5)c3s2)CC1 [Example 432, 1-{4-[6-{[4-(methylsulfonyl)piperazin-1-yl]methyl}-4-(8-oxa-3-azabicyclo[3.2.1]oct-3-yl)thieno[3,2-d]pyrimidin-2-yl]phenyl}-3-phenylurea] | 37 nM
22 | 8 nM | 330 nM | 120 nM | 0.445 nM | CS(=O)(=O)N1CCN(Cc2cc3nc(-c4ccc(NC(=O)Nc5ccncc5)cc4)nc(N4CC5CCC(C4)O5)c3s2)CC1 [Example 434, 1-{4-[6-{[4-(methylsulfonyl)piperazin-1-yl]methyl}-4-(8-oxa-3-azabicyclo[3.2.1]oct-3-yl)thieno[3,2-d]pyrimidin-2-yl]phenyl}-3-pyridin-4-ylurea] | 180 nM
